Test results taken from publication PMC2889921 (The Journal of organic chemistry, 2009).

Biological target: T1, PKCζ (protein kinase C ζ) (Homo sapiens, UniProt Q05513)
T1 sequence (Q05513 1-592): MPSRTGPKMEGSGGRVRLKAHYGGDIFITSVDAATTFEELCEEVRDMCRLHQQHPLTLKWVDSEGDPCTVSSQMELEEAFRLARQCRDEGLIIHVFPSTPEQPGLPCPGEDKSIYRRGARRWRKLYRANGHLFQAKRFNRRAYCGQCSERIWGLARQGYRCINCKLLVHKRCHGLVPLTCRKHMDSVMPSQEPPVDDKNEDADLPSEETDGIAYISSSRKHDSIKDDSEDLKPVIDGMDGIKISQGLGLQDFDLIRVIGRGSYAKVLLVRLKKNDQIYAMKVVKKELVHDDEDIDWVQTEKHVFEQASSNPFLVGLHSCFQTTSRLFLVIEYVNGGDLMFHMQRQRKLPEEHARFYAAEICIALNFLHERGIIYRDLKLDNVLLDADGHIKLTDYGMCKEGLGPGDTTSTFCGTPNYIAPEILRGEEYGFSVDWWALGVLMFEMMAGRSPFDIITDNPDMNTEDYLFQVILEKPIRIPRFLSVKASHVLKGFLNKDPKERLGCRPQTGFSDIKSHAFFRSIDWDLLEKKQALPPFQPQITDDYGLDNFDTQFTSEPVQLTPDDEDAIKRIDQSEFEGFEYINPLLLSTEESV
Test: homogeneous TR-FRET kinase activity assay
Type: biochemical

IC50 [µM]	Substance
16.4	fibrosterol sulfate A [compound 1]
5.6	fibrosterol sulfate B [compound 2]
